Experimental data: paper PMC7125560 (Bioorganic & Medicinal Chemistry, 2007)

Legend:
[1] = system: SARS-CoV; settings: read-out: EC50 (SARS-CoV); cited from earlier work
[2] = system: HCV subgenomic replicon RNA; assay: real-time RT-PCR quantification of replicon RNA; assay type: cell-based, hepatitis C virus (HCV); settings: two-day incubation

| SMILES | EC50 [1] | replicon RNA amount ([2]; 12.5 μM) | replicon RNA amount ([2]; 25 μM) |
| --- | --- | --- | --- |
| O=C(OC[C@H]1C[C@@H](n2cnc3c(Cl)ncnc32)[C@@H]1CO)c1ccccc1 [Compound 5] | 14.5 µM | – | – |
| OC[C@H]1C[C@@H](n2cnc3c(Cl)ncnc32)[C@@H]1CO [Compound 6] | > 300 µM | – | – |
| O=C(OC[C@H]1O[C@@H](n2cnc3c(Cl)ncnc32)C[C@@H]1O)c1ccccc1 [Compound 10, 9-(5-O-benzoyl-β-D-2-deoxyribofuranosyl)-6-chloropurine] | – | approximately 45% | ~6% |
